Our source for the CC50 values is patent US20140243401A1, “METHODS OF SCREENING COMPOUNDS THAT ARE CYTOTOXIC TO TUMOR CELLS AND METHODS OF TREATING TUMOR CELLS USING SUCH COMPOUND” (The Johns Hopkins University, priority 2010, published 2014).

For this test, the system named is Human (non-small cell) lung cancer cell lines. Nature of the test: XTT cytotoxicity assay, human non-small cell lung cancer cell lines. In kind it is cell-based. The conditions noted are these: 4 human non-small cell lung cancer cell lines, read-out: LC50 (the source's name). On the procedure:
Cytotoxicity can be easily measured using XTT assays, which provide an indication of mitochondrial activity. The XTT assay is a non-radioactive alternative for the [^51Cr] release cytotoxicity assay. XTT is a tetrazolium salt that is reduced to a formazan dye only by metabolically active, viable cells. The reduction of XTT is measured spectrophotometrically as OD490-OD650. Thus, cells that are actively metabolizing will form reaction product when subjected to XTT measurement.
For this experiment, cells were cultured under standard culture conditions. MCF7 human breast cancer cells were cultured in DMEM containing 5 mM glucose medium with 10% fetal calf serum, 0.01 mg/ml insulin and 1% penicillin/streptomycin. To measure the cytotoxicity of specific compounds against cancer cells, 9×10^3 MCF7 cells were plated per well in 96-well plates. Following overnight culture, the compounds, dissolved in DMSO, were added to the wells in 1 μl volume at specified concentrations. Vehicle controls were run for each experiment. Each condition was run in triplicate. […] Plates were read at OD490 on a PerkinElmer Victor 1420. […]
Using the XTT assay, LC50 values for C31 were determined for numerous human cancer cell lines and human hepatocytes, as shown in the following table: […]
For orientation: Formazan colour is commonly taken as a measure of viable cells.

Converted amounts (≈) assume the structure as drawn.

For the compound `CCCCCCCCC1(C)SC(=O)C=C1OCC(=O)Nc1ccc(Cl)cc1` (stereo not shown) [Compound C31], the CC50 lay within 4 to 8 µg/mL (≈ 9.76 to 19.5 µM).
